# Measured values as given in US20060154896A1, “Phosphorylated dextrans” (priority 2002, published 2006).
# Key:
# B cells = test: Blastogenic activity on separated B cells (MACS CD45R adsorbed fraction); assay type: cell-based, mouse; details: B cell fraction, 48 hours, FIG. 6
# Procedure: (§1) The mouse spleen cell suspension prepared in Example 4 was washed by centrifugation (at 2,500 rpm for five minutes at 4° C.) with a buffer for cell separation (0.5% BSA, 2 mM EDTA/-PBS). 3×10^7 cells were incubated at 4° C. for 15 minutes with 50 μl of a 20-times diluted biotinylated anti-mouse CD45R antibody (CLTAG Lab, Burlingame, Calif.). The cells were washed by centrifugation with the cell separation buffer (five minutes at 2,500 rpm and 4° C.), and the supernatant was then discarded. 30 μl of ten-fold diluted streptavidin microbeads (Miltenyi Biotec GmbH, Germany) was added to the cells, and the mixture was incubated at 4° C. for 15 minutes. The cells were washed by centrifugation with the cell separation buffer (five minutes at 2,500 rpm and 4° C.), re-suspended in the same buffer, and the suspension was then filtered through a nylon mesh to remove aggregated cells. […]
# (§2) The cells thus obtained were collected by centrifugation and re-suspended in RPMI-1640 containing 10% FCS. The blastogenic activity was then determined using the method described above, except that the stimulation by phosphorylated NPS was carried out at a concentration of 100 μg/ml, and the cells were incubated for 48 hours.
# mouse spleen cells = test: Blastogenic activity on mouse spleen cells ([3H]-thymidine uptake, Stimulation Index); assay type: cell-based
# From the text: In the preparation of immune cells, specific pathogen free (SPF) BALB/c mice (Japan SLC, Shizuoka, Japan) were used for examination. Five-week old male mice were purchased, and allowed to freely consume distilled water and MR breeder (Nihon Nosan Kogyo (Nosan Co.)), which is experimental feed for mice and rats. Six- to ten-week-old mice were used for the experiments.
# BALB/c mice were anesthetized with ether, and then sacrificed by exsanguination. Their spleens were excised and washed with phosphate buffer (PBS-4×S.P; ph 7.3) containing streptomycin and penicillin ([…] and 400 U/ml, respectively) to remove adipose tissue and such. The spleens were well dispersed in gauze, and spleen cells were filtered through the gauze into PBS to prepare a cell suspension. This cell suspension was centrifuged (at 300×g for five minutes at 4° C.). After discarding the supernatant, the cells were re-suspended in RPMI-1640 medium (SIGMA). The suspension was filtered through a steel mesh to remove aggregated cells, and centrifuged again (five minutes at 300×g and 4° C.). After discarding the supernatant, the cells were finally re-suspended in RPMI-1640 containing 2% fetal calf serum (FCS: Biocell Lab., Inc., CA, US). The viable cell count was determined using a trypan blue staining method, and this suspension was used as the spleen cell suspension in the experiments.
# The cell suspension was transferred into each well of a 96-well microplate (SUMITOMO BAKELITE CO., LTD. Tokyo, Japan) to give 2×10^5 cells per well. The dextran and five types of phosphorylated dextrans (molecular weights of about 10,000, 40,000, 160,000, 510,000, and 2,000,000) prepared in Example 1 were respectively added to the wells to a concentration of 100 μg/ml. The cells were then cultured in RPMI-1640 (2% FCS) under 5% CO2 at 37° C. for 48 hours. As positive control samples, lipopolysaccharide (LPS: B-cell mitogen, E. coli 0111: B4, SIGMA) or concanavalin A (ConA: T-cell mitogen, SIGMA) were added at a final concentration of 20 μg/ml and 2 μg/ml, respectively. […] TdR incorporated into the lymphocytes was determined using a liquid scintillation counter (LS1801; Beckman Coulter, Tokyo).
# The blastogenic activities on lymphocytes were evaluated by calculating Stimulation Indexes (S.I.) from the [^3H] […]
# The blastogenic activities of phosphorylated dextrans on mouse spleen cells were measured as described in Example 5, except that phosphorylated dextrans were added at concentrations of 100 ng/ml, 1 μg/ml, 10 μg/ml, 100 μg/ml, or 200 μg/ml, the cells were incubated in RPMI-1640 medium (2% FCS) under 5% CO2 at 37° C. for 48 hours, and methyl-[^3H]-thymidine uptakes were measured. Blastogenic activity was estimated by calculating S.I. values from the radioactivity, compared with a control. […]
# T cells = test: Blastogenic activity on separated T cells (MACS flow-through fraction); assay type: cell-based, mouse; details: T cell fraction, 48 hours, FIG. 6
# Procedure: as §1, §2
Substance,activation of B cells (positive control) (B cells),"blastogenic activity, S.I. (positive control) (mouse spleen cells; LPS 20 μg/ml, 48 hours, FIG. 3)","blastogenic activity, S.I. (positive control) (mouse spleen cells; LPS, FIG. 4 experiment)",activation of T cells (positive control) (T cells),"blastogenic activity, S.I. (positive control) (mouse spleen cells; ConA 2 μg/ml, 48 hours, FIG. 3)","blastogenic activity, S.I. (positive control) (mouse spleen cells; ConA, FIG. 4 experiment)"
Lipopolysaccharide,specifically activated,89.3,79.8,,,
concanavalin A,,,,specifically activated,189.4,247.8
